Assay results taken from patent publication US20220081446A1, “CRYSTAL FORM OF 1,2,3-TRIAZOLO[1,5-A]PYRAZINES DERIVATIVE AND PREPARATION METHOD FOR CRYSTAL FORM” (Jiangsu Hengrui Medicine Co., Ltd., priority 2019, published 2022).

Assays:
[1] = tested on: HepG2 cells; details: from PCT/CN2018/097170; cited from earlier work
[2] = tested on: HBV DNA replication in HepG2.2.15 cells; test: In vitro anti-HBV activity test (quantitative analysis of intracellular HBV DNA); format: cell-based; details: HBV DNA by quantitative PCR
From the text: Test Example 1: In Vitro Anti-HBV Activity Test (Quantitative Analysis of Intracellular HBV DNA)
HepG2.2.15 cells were stable expression cell lines integrated with HBV genome, which can be secreted out of cells through replication, transcription, translation and packaging into virus particles with HBV DNA. In this study, the quantitative PCR method was used to quantitatively analyze the HBV DNA produced by the proliferation of HepG2.2.15 in vitro, thus determining the activity of the compounds in the present disclosure to inhibit HBV DNA replication through inhibiting the assembly of HBV capsid protein.
HepG2.2.15 cells were cultured in DMEM/high glucose medium (10% FBS, 400 μg/ml G418) and passaged every 3 days. On the day of experiment, fresh cell culture medium was used to prepare cell suspension, which was cultured with 40,000 cells/well in 96 well plate (Corning, #3599) under 5% carbon dioxide at 37° C. […] The extracted DNA was analyzed by HBV DNA quantitative PCR using Hepatitis B virus nucleic acid quantitative detection kit from Tepp biology, with the method specifically mentioned in the instructions of the kit. The quantitative standard curve was determined in parallel experiment using the own standard sample of the kit. Each sample was converted quantitatively based on the standard curve. […]

[3] = tested on: HepG2 cells; details: read-out: CC50 (proliferation inhibition), 72 hours, CellTiter-Glo
Description: HepG2 cells taken in logarithmic growth stage were prepared into the cell suspension through digestion with trypsin, and then the suspension was cultured with 6,000 cells/well in 96-well plate (96-well White/Clear Flat Bottom plate) under 5% carbon dioxide at 37° C. for 16-20 hours. On the second day, the compound was dissolved in pure DMSO with the concentration of 20 mM, and then the gradient dilution of the compound was carried out by using Automatic pipetting workstation (Bravo) with the dilution times of 3, where there were 8 concentration points for each compound, and the control well was DMSO; next, the compound with each concentration treated by DMSO was diluted 200 times using EMEM (containing 10% FBS) medium. The cell culture plate inoculated on the first day was taken out, and then the medium in the well plate was sucked out by using the negative pressure suction device. Into each well, the prepared medium containing each concentration of compound was added respectively, which was cultured with 100 μl/well at 37° C. for 72 hours. On the fifth day, the 96-well cell plate was taken out, and the freshly prepared CellTiter Glo was added into each well with 100 μL/well, left to stand for 5-10 minutes, sealed for the bottom of the 96-well plate with a white back cover film (PerkinElmer), placed into the Microplate Reader, and measured for the Luminescence signal by the reader.

[4] = biological target: HBV capsid protein (Hepatitis B virus genotype D subtype ayw, UniProt P03146); details: from PCT/CN2018/097170; cited from earlier work
HBV capsid protein, sequence (P03146 whole entry): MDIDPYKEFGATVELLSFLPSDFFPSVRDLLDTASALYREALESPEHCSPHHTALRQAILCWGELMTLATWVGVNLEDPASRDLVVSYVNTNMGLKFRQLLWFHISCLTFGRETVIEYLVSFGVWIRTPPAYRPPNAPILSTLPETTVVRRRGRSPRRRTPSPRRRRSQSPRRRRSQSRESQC

[5] = from PCT/CN2018/097170; cited from earlier work
[6] = Investigation of influencing factors (stability under heating, illumination, high humidity); format: physicochemical
Description: The sample of the crystal form A (Example 5) was spread out, and its stability was investigated under the conditions of heating (40° C., 60° C.), illumination (4500 Lux) and high humidity (RH 75%, RH 90%). The sampling was investigated over 30 days.

[7] = Long term/accelerated stability; format: physicochemical
Description: The crystal form A (Example 5) was placed at 25° C., 60% RH and 40° C., 75% RH to investigate its stability

[8] = DVS (dynamic vapor sorption) hygroscopicity test; format: physicochemical
Description: According to the definition of hygroscopicity characteristics and hygroscopic weight gain in “9103 guiding principles for hygroscopicity of drugs” in the fourth volume of Chinese Pharmacopoeia (2015 Edition),
DVS indicates dynamic vapor sorption: the determination is carried out by SMS DVS Advantage at 25° C. with a humidity change of 50%-95%-0%-95%-50%, and the step of 10% (the last step is 5%) (The specific range of humidity is subject to the corresponding spectrum, and the methods listed here are those used in most cases), and the judgment standard is that dm/dt is not more than 0.02%.

For `C[C@H]1Cn2nnc(C(=O)N[C@H](C)C(F)(F)F)c2CN1C(=O)Nc1ccc(F)c(F)c1` [Compound B, (S)-N^5-(3,4-difluorophenyl)-6-methyl-N^3-((R)-1,1,1-trifluoropropan-2-yl)-6,7-dihydro-[1,2,3]triazolo[1,5-a]pyrazine-3,5(4H)-dicarbonamide], the “effect on the proliferation inhibition of HepG2 cells in vitro” value [1] is given as “no or little effect”, the “Emax (maximum inhibitory effect on HBV DNA replication)” value [2] is given as 100% and the EC50 ([2]; read-out: EC50 (inhibition of HBV DNA replication)) is given as 0.019 µM. The CC50 [3] was greater than 100 µM, the “inhibitory effect on the normal assembly of HBV capsid protein” value [4] was “obvious inhibitory effect” and the bioavailability [5] was “high”. For the same molecule, the pharmacokinetic absorption [5] was “good”.
In the case of `C[C@H]1Cn2nnc(C(=O)N[C@H](C)C(F)(F)F)c2CN1C(=O)Nc1ccc(F)c(F)c1` [Crystal form A, (S)-N^5-(3,4-difluorophenyl)-6-methyl-N^3-((R)-1,1,1-trifluoropropan-2-yl)-6,7-dihydro-[1,2,3]triazolo[1,5-a]pyrazine-3,5(4H)-dicarbonamide], the Color and character ([6]; 4500 Lux, day 5) is reported as “white solid”, the Purity % ([6]; 4500 Lux, day 5) is reported as 98.27% and the Color and character ([6]; 4500 Lux, day 10) is reported as “white solid”. The Purity % ([6]; 4500 Lux, day 10) was 98.27%, the Color and character ([6]; 4500 Lux, day 30) was “white solid” and the Crystal form ([6]; 4500 Lux, day 30) was “No changed”. For the same molecule, the Purity % ([6]; 4500 Lux, day 30) was 98.30%, the Color and character ([6]; RH 75%, day 5) was “white solid” and the Purity % ([6]; RH 75%, day 5) was 98.26%. The Weight gain % ([6]; RH 75%, day 5) was 2.28%, the Color and character ([6]; RH 75%, day 10) was “white solid” and the Purity % ([6]; RH 75%, day 10) was 98.29%. For the same molecule, the Weight gain % ([6]; RH 75%, day 10) was 2.72%, the Color and character ([6]; RH 75%, day 30) was “white solid” and the Crystal form ([6]; RH 75%, day 30) was “No changed”. For the same molecule, the Purity % ([6]; RH 75%, day 30) was 98.29%, the Weight gain % ([6]; RH 75%, day 30) was 6.68% and the Color and character ([6]; RH 90%, day 5) was “white solid”. For the same molecule, the Purity % ([6]; RH 90%, day 5) was 98.26%, the Weight gain % ([6]; RH 90%, day 5) was 2.93% and the Color and character ([6]; RH 90%, day 10) was “white solid”. For the same molecule, the Purity % ([6]; RH 90%, day 10) was 98.28%, the Weight gain % ([6]; RH 90%, day 10) was 3.19% and the Color and character ([6]; RH 90%, day 30) was “white solid”. The Crystal form ([6]; RH 90%, day 30) was “No changed”, the Purity % ([6]; RH 90%, day 30) was 98.30% and the Weight gain % ([6]; RH 90%, day 30) was 10.70%. For the same molecule, the Color and character ([6]; heating 40° C., day 5) was “white solid”, the Purity % ([6]; heating 40° C., day 5) was 98.28% and the Color and character ([6]; heating 40° C., day 10) was “white solid”. The Purity % ([6]; heating 40° C., day 10) was 98.31%, the Color and character ([6]; heating 40° C., day 30) was “white solid” and the Crystal form ([6]; heating 40° C., day 30) was “No changed”. For the same molecule, the Purity % ([6]; heating 40° C., day 30) was 98.32%, the Color and character ([6]; heating 60° C., day 5) was “white solid” and the Purity % ([6]; heating 60° C., day 5) was 98.26%. For the same molecule, the Color and character ([6]; heating 60° C., day 10) was “white solid”, the Purity % ([6]; heating 60° C., day 10) was 98.27% and the Color and character ([6]; heating 60° C., day 30) was “white solid”. The Crystal form ([6]; heating 60° C., day 30) was “No changed”, the Purity % ([6]; heating 60° C., day 30) was 98.30% and the “physical and chemical stability” value ([6]; illumination, 40° C., 60° C., high humidity 75% and 90%, storing for 30 days) was “good physical and chemical stability”. For the same molecule, the Color and character ([6]; start, day 0) was “white solid”, the Purity % ([6]; start, day 0) was 98.30% and the Purity % ([7]; 25° C., 60% RH, 1 month) was 98.3%. It also gave a Purity % ([7]; 25° C., 60% RH, 2 months) of 98.3%, a Purity % ([7]; 25° C., 60% RH, 3 months) of 98.3% and a Purity % ([7]; 25° C., 60% RH, 6 months) of 98.3%. For the same molecule, the Purity % ([7]; 25° C., 60% RH, start) was 98.3%, the Purity % ([7]; 40° C., 75% RH, 1 month) was 98.3% and the Purity % ([7]; 40° C., 75% RH, 2 months) was 98.3%. For the same molecule, the Purity % ([7]; 40° C., 75% RH, 3 months) was 98.3%, the Purity % ([7]; 40° C., 75% RH, 6 months) was 98.2% and the Purity % ([7]; 40° C., 75% RH, start) was 98.3%. For the same molecule, the “physical and chemical stability” value ([7]; stored for 6 months, long-term (25° C., 60% RH) and acceleration (40° C., 75% RH)) was “excellent physical and chemical stability”, the hygroscopicity class ([8]; 70% RH) was “no or little hygroscopicity” and the hygroscopicity class ([8]; 90% RH) was “slight hygroscopicity, or no/little hygroscopicity”. For the same molecule, the “crystal form after DVS detection (XRPD)” value ([8]; before vs after DVS) was “remained unchanged”, the desorption process ([8]; humidity change from 0% to 95% RH) was “consistent with the adsorption process” and the hygroscopic weight gain ([8]; normal storage condition, 25° C. and 60% RH) was “about 0.07%”.
